Laboratory results taken from patent US10047041B2, “Amino-phenyl-sulfonyl-acetate derivatives and use thereof” (CJ Healthcare Corporation, priority 2014, dated 2018).

System: ICR mice
Assay: Oral glucose tolerance test (OGTT) in ICR mice
Format: in vivo
Conditions: normal fasted ICR mice; oral 50, 20, 5 and 1 mg/kg in 0.5% methylcellulose; glucose 2 g/kg; student's t-test p<0.05
Protocol: In order to evaluate the ability to control blood glucose in the body for the compound according to the present invention, an oral glucose tolerance test was conducted using ICR mice. The day before the test, normal ICR mice were separated into four per group, and were fasted for at least 16 hours. The body weight of each mouse was measured and recorded in the morning on the day of the test; The compound was prepared in a concentration of 5 mg/mL in 0.5% methylcellulose such that it could be administered at a dose of 50 mg/kg, and was then further diluted to be in concentrations of […] and administered at the same volume such that it can be administered at doses of 20 mg/kg, 5 mg/kg, and 1 mg/kg. Glucose was dissolved in drinking water and prepared in a concentration of 200 mg/mL such that it could be administered at a dose of 2 g/kg. Before administering the compounds, a small amount of blood of the mice was drawn from the caudal vein, and blood glucose was measured using ACCU-CHEK Active (Art. No. 2248891001), a blood glucose meter, and recorded. A solvent (0.5% MC) as a vehicle and the compounds prepared above were administered to all mice at a dose of 10 mL per 1 kg of body weight using a sonde. Glucose was further administered, and the blood glucose was measured in each mouse after 0.5 hours, 1 hour, and 2 hours. […]

In the case of `Cc1ccccc1-c1cccc(CNc2ccc(S(=O)(=O)CC(=O)O)cc2)c1` [Example 1, 2-(4-((2′-methyl-biphenyl-3-yl)methylamino)phenylsulfonyl)acetic acid], the “effect of lowering blood glucose (glucose AUC0-2 hr after glucose administration)” value is reported as “significant effect of lowering blood glucose”.
